pEC50: −log10 of the molar value.
Legend:
TRα = biological target: T1, TRα (Homo sapiens, UniProt P10827); assay: Thyroid-hormone reporter-gene assay, TRα (Gal4 DBD hybrid, luciferase, HEK293); type: cell-based; conditions: reporter cells derived from HEK293, 24 hr incubation, luciferase readout
T1 construct: expressed in transfected cells; host or cells: HEK293
T1 sequence (P10827 128-410 isoform P10827-2 limits assumed): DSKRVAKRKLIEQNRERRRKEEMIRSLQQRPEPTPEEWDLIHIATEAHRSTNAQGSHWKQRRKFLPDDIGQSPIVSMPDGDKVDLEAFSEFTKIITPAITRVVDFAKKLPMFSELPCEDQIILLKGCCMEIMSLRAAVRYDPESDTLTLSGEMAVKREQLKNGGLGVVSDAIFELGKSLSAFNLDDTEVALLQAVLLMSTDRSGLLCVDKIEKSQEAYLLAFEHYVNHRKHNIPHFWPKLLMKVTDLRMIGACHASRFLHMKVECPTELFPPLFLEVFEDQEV
Protocol: (§1) Compounds were tested for thyroid-hormone receptor activity using TR reporter-gene assays. Reporter cells used in the assays express a TR-receptor hybrid (either TRα or TRβ) in which the native N-terminal DNA binding domain (DBD) has been replaced with that of the yeast Gal4 DBD. The reporter gene, firefly luciferase, is functionally linked to the Gal4 upstream activation sequence (UAS). Both cell lines were derived from human embryonic kidney (HEK293).
(§2) A suspension of reporter cells was prepared in cell recovery medium containing 10% charcoal-stripped FBS, and dispensed into assay plates. The plates were pre-incubated for 6 hours in a cell culture incubator (37° C./5% CO2/85% humidity).
(§3) These intermediate stocks were subsequently diluted directly into compound screening medium containing 10% charcoal-stripped FBS to generate “2×-concentration” treatment media (containing 0.2, 0.4 or 0.8% DMSO).
(§4) At the end of the pre-incubation period, culture media were discarded from the assay plates, and all wells received 100 μl of compound screening medium. 100 μl of each of the previously prepared “2×-concentration” treatment media were dispensed into duplicate assay wells, thereby achieving the desired final treatment concentrations. The final concentration of DMSO in all assay wells was 0.1, 0.2 or 0.4%. Assay plates were incubated for 24 hr in a cell culture incubator (37° C./5% CO2/85% humidity).
(§5) At the 24 h assay endpoint, treatment media were discarded and […] of luciferase detection reagent was added. Relative luminometer units (RLUs) were quantified from each assay well.

TRβ = biological target: T2, TRβ (Homo sapiens, UniProt P10828); assay: Thyroid-hormone reporter-gene assay, TRβ (Gal4 DBD hybrid, luciferase, HEK293); type: cell-based; conditions: for T3-SI, selectivity index (SI) calculated as EC50 (TRα)/EC50 (TRβ): TRβ over TRα selectivity from reporter-gene EC50 values; for pEC50: reporter cells derived from HEK293, 24 hr incubation, luciferase readout
T2 construct: expressed in transfected cells; host or cells: HEK293
T2 sequence (P10828 217-461 limits assumed): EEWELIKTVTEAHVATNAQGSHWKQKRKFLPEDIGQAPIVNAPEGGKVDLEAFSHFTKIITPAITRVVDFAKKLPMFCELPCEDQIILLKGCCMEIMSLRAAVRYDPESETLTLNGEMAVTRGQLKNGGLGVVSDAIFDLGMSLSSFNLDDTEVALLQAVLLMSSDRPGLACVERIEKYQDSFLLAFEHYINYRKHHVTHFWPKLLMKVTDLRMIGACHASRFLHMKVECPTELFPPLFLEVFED
Protocol: as §1, §2, §3, §4, §5

| SMILES | pEC50 (TRα) | T3-SI, selectivity index (SI) calculated as EC50 (TRα)/EC50 (TRβ) (TRβ) | pEC50 (TRβ) |
| --- | --- | --- | --- |
| C[C@@H](c1ccc(F)cc1)c1cc(Cc2c(Cl)cc(OCC(=O)O)cc2Cl)ccc1O (single isomer, unassigned) [Compound 74] | < 6.00 | ++ (3X < T3-SI ≤ 30X) | 6.00 to 7.00 |
| C[C@H](c1ccc(F)cc1)c1cc(Cc2c(Cl)cc(OCC(=O)O)cc2Cl)ccc1O (single isomer, unassigned) [Compound 75] | 7.00 to 8.00 | ++ (3X < T3-SI ≤ 30X) | > 8.00 |
| CCOC(=O)c1cccc(-c2cc(Cc3c(Cl)cc(OCC(=O)O)cc3Cl)ccc2O)c1 [Compound 6, 2-(3,5-dichloro-4-((3′-(ethoxycarbonyl)-6-hydroxy-[1,1′-biphenyl]-3-yl)methyl)phenoxy)acetic Acid] | – | – | < 6.00 |
| CC(=O)Nc1cccc(-c2cc(Cc3c(Cl)cc(OCC(=O)O)cc3Cl)ccc2O)c1 [Compound 9, 2-(4-((3′-acetamido-6-hydroxy-[1,1′-biphenyl]-3-yl)methyl)-3,5-dichlorophenoxy)acetic Acid] | – | – | < 6.00 |
| CC(=O)c1cccc(-c2cc(Cc3c(Cl)cc(OCC(=O)O)cc3Cl)ccc2O)c1 [Compound 11, 2-(4-((3′-acetyl-6-hydroxy-[1,1′-biphenyl]-3-yl)methyl)-3,5-dichlorophenoxy)acetic Acid] | < 6.00 | – | < 6.00 |
| CC(C)c1cccc(-c2cc(Cc3c(Cl)cc(OCC(=O)O)cc3Cl)ccc2O)c1 [Compound 13, 2-(3,5-dichloro-4-((6-hydroxy-3′-isopropyl-[1,1′-biphenyl]-3-yl)methyl)phenoxy)acetic Acid] | < 6.00 | +++ (T3-SI > 30X) | 6.00 to 7.00 |
| CS(=O)(=O)c1cccc(-c2cc(Cc3c(Cl)cc(OCC(=O)O)cc3Cl)ccc2O)c1 [Compound 14, 2-(3,5-dichloro-4-((6-hydroxy-3′-(methylsulfonyl)-[1,1′-biphenyl]-3-yl)methyl)phenoxy)acetic Acid] | – | – | < 6.00 |
| COCc1cccc(-c2cc(Cc3c(Cl)cc(OCC(=O)O)cc3Cl)ccc2O)c1 [Compound 15, 2-(3,5-dichloro-4-((6-hydroxy-3′-(methoxymethyl)-[1,1′-biphenyl]-3-yl)methyl)phenoxy)acetic Acid] | – | – | < 6.00 |
| CCCc1cccc(-c2cc(Cc3c(Cl)cc(OCC(=O)O)cc3Cl)ccc2O)c1 [Compound 16, 2-(3,5-dichloro-4-((6-hydroxy-3′-propyl-[1,1′-biphenyl]-3-yl)methyl)phenoxy)acetic Acid] | < 6.00 | +++ (T3-SI > 30X) | 6.00 to 7.00 |
| O=C(O)COc1cc(Cl)c(Cc2ccc(O)c(-c3ccc(F)c(OC(F)F)c3)c2)c(Cl)c1 [Compound 55, 2-(3,5-dichloro-4-((3′-(difluoromethoxy)-4′-fluoro-6-hydroxy-[1,1′-biphenyl]-3-yl)methyl)phenoxy)acetic Acid] | – | – | < 6.00 |
| N#Cc1ccc(Cc2cc(Cc3c(Cl)cc(OCC(=O)O)cc3Cl)ccc2O)cc1 [Compound 80, 2-(3,5-dichloro-4-(3-(4-cyanobenzyl)-4-hydroxybenzyl)phenoxy)acetic Acid] | – | – | < 6.00 |
| Cc1ccc(Cc2cc(Cc3c(Cl)cc(OCC(=O)O)cc3Cl)ccc2O)cc1 [Compound 92, 2-(3,5-dichloro-4-(4-hydroxy-3-(4-methylbenzyl)benzyl)phenoxy)acetic Acid] | – | – | < 6.00 |
| O=C(O)COc1cc(Cl)c(Cc2ccc(O)c(Cc3cncnc3)c2)c(Cl)c1 [Compound 94, 2-(3,5-dichloro-4-(4-hydroxy-3-(pyrimidin-5-ylmethyl)benzyl)phenoxy) acetic Acid] | – | – | < 6.00 |
| O=C(O)COc1cc(Cl)c(Cc2ccc(O)c(Cc3ccc(CC(F)(F)F)cc3)c2)c(Cl)c1 [Compound 96, 2-(3,5-dichloro-4-(4-hydroxy-3-(4-(2,2,2-trifluoroethyl)benzyl)benzyl)phenoxy)acetic Acid] | – | – | < 6.00 |

The remaining lines, values ahead:

| pEC50 (TRα) | T3-SI, selectivity index (SI) calculated as EC50 (TRα)/EC50 (TRβ) (TRβ) | pEC50 (TRβ) | SMILES |
| --- | --- | --- | --- |
| 6.00 to 7.00 | ++ (3X < T3-SI ≤ 30X) | 6.00 to 7.00 | O=C(O)COc1cc(Cl)c(Cc2ccc(O)c(-c3cccc(C(F)(F)F)c3)c2)c(Cl)c1 [Compound 1, 2-(3,5-dichloro-4-((6-hydroxy-3′-(trifluoromethyl)-[1,1′-biphenyl]-3-yl)methyl)phenoxy)acetic Acid] |
| < 6.00 | +++ (T3-SI > 30X) | 6.00 to 7.00 | CCc1cccc(-c2cc(Cc3c(Cl)cc(OCC(=O)O)cc3Cl)ccc2O)c1 [Compound 3, 2-(3,5-dichloro-4-((3′-ethyl-6-hydroxy-[1,1′-biphenyl]-3-yl)methyl)phenoxy)acetic Acid] |
| < 6.00 | +++ (T3-SI > 30X) | 6.00 to 7.00 | O=C(O)COc1cc(Cl)c(Cc2ccc(O)c(-c3cccc(OC(F)F)c3)c2)c(Cl)c1 [Compound 5, 2-(3,5-dichloro-4-((3′-(difluoromethoxy)-6-hydroxy-[1,1′-biphenyl]-3-yl)methyl)phenoxy)acetic Acid] |
| < 6.00 | ++ (3X < T3-SI ≤ 30X) | < 6.00 | COc1cccc(-c2cc(Cc3c(Cl)cc(OCC(=O)O)cc3Cl)ccc2O)c1 [Compound 7, 2-(3,5-dichloro-4-((6-hydroxy-3′-methoxy-[1,1′-biphenyl]-3-yl)methyl)phenoxy)acetic Acid] |
| – | – | < 6.00 | O=C(O)COc1cc(Cl)c(Cc2ccc(O)c(-c3cccc(CO)c3)c2)c(Cl)c1 [Compound 8, 2-(3,5-dichloro-4-((6-hydroxy-3′-(hydroxymethyl)-[1,1′-biphenyl]-3-yl)methyl)phenoxy)acetic Acid] |
| < 6.00 | +++ (T3-SI > 30X) | 6.00 to 7.00 | O=C(O)COc1cc(Cl)c(Cc2ccc(O)c(-c3cccc(OC(F)(F)F)c3)c2)c(Cl)c1 [Compound 12, 2-(3,5-dichloro-4-((6-hydroxy-3′-(trifluoromethoxy)-[1,1′-biphenyl]-3-yl)methyl)phenoxy)acetic Acid] |
| < 6.00 | ++ (3X < T3-SI ≤ 30X) | 6.00 to 7.00 | Cc1cccc(-c2cc(Cc3c(Cl)cc(OCC(=O)O)cc3Cl)ccc2O)c1 [Compound 17, 2-(3,5-dichloro-4-((6-hydroxy-3′-methyl-[1,1′-biphenyl]-3-yl)methyl)phenoxy)acetic Acid] |
| 6.00 to 7.00 | ++ (3X < T3-SI ≤ 30X) | 7.00 to 8.00 | N#Cc1cccc(-c2cc(Cc3c(Cl)cc(OCC(=O)O)cc3Cl)ccc2O)c1 [Compound 19, 2-(3,5-dichloro-4-((3′-cyano-6-hydroxy-[1,1′-biphenyl]-3-yl)methyl)phenoxy)acetic Acid] |
| < 6.00 | ++ (3X < T3-SI ≤ 30X) | 6.00 to 7.00 | C=Cc1cccc(-c2cc(Cc3c(Cl)cc(OCC(=O)O)cc3Cl)ccc2O)c1 [Compound 21, 2-(3,5-dichloro-4-((6-hydroxy-3′-vinyl-[1,1′-biphenyl]-3-yl)methyl)phenoxy)acetic Acid] |
| – | – | < 6.00 | O=C(O)COc1cc(Cl)c(Cc2ccc(O)c(-c3cccc(C(F)(F)C(F)(F)F)c3)c2)c(Cl)c1 [Compound 28, 2-(3,5-dichloro-4-((6-hydroxy-3′-(perfluoroethyl)-[1,1′-biphenyl]-3-yl)methyl)phenoxy)acetic Acid] |
| – | – | < 6.00 | O=C(O)COc1cc(Cl)c(Cc2ccc(O)c(-c3ccc(C(F)(F)F)s3)c2)c(Cl)c1 [Compound 37] |
| – | – | < 6.00 | Cc1ccoc1-c1cc(Cc2c(Cl)cc(OCC(=O)O)cc2Cl)ccc1O [Compound 44, 2-(3,5-dichloro-4-(4-hydroxy-3-(3-methylfuran-2-yl)benzyl)phenoxy)acetic Acid] |
| – | – | < 6.00 | O=C(O)COc1cc(Cl)c(Cc2ccc(O)c(-c3ccc(F)c(C(F)(F)F)c3)c2)c(Cl)c1 [Compound 48, 2-(3,5-dichloro-4-((4′-fluoro-6-hydroxy-3′-(trifluoromethyl)-[1,1′-biphenyl]-3-yl)methyl)phenoxy)acetic acid] |
| – | – | 6.00 to 7.00 | O=C(O)COc1cc(Cl)c(Cc2ccc(O)c(-c3cc(F)cc(C(F)(F)F)c3)c2)c(Cl)c1 [Compound 50, 2-(3,5-dichloro-4-((3′-fluoro-6-hydroxy-5′-(trifluoromethyl)-[1,1′-biphenyl]-3-yl)methyl)phenoxy)acetic Acid] |
